Columns and labels:
Type in all cases: in vivo
[1] = system: barnyard grass; assay: Test Example 1: weedkilling efficacy, preemergent weed treatment in the submerged state; A: barnyard grass; details: treatment dosage 252 g/ha
How it was run: (§1)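 Pots of alluvial soil flooded 4 cm deep, sown with barnyard grass, bulrush and oval-leafed pondweed and transplanted with 2.5-leaf rice. Emulsified compound applied to the water surface on sowing day at stated g/ha; greenhouse 25–30 °C, effects assessed 3 weeks after treatment.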

[2] = system: bulrush; assay: Test Example 1: weedkilling efficacy, preemergent weed treatment in the submerged state; B: bulrush; details: treatment dosage 252 g/ha
How it was run: as §1

[3] = system: oval-leafed pondweed; assay: Test Example 1: weedkilling efficacy, preemergent weed treatment in the submerged state; C: oval-leafed pondweed; details: treatment dosage 252 g/ha
How it was run: as §1

[4] = system: transplanted rice; assay: Test Example 1: preemergent weed treatment in the submerged state, effect on crop; a: transplanted rice; details: treatment dosage 252 g/ha
How it was run: as §1

[5] = system: barnyard grass; assay: Test Example 2: weedkilling efficacy, growth period weed treatment in the submerged state; A: barnyard grass; details: treatment dosage 252 g/ha
How it was run: (§2)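 Barnyard grass, bulrush and oval-leafed pondweed sown in alluvial soil under 4 cm flooding, greenhouse 25 to 30° C. At 1-2 leaf stage, water-diluted emulsion applied to the water surface at stated g/ha dosages; effects scored 3 weeks later.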

[6] = system: bulrush; assay: Test Example 2: weedkilling efficacy, growth period weed treatment in the submerged state; B: bulrush; details: treatment dosage 252 g/ha
How it was run: as §2

[7] = system: oval-leafed pondweed; assay: Test Example 2: weedkilling efficacy, growth period weed treatment in the submerged state; C: oval-leafed pondweed; details: treatment dosage 252 g/ha
How it was run: as §2

[8] = system: crabgrass; assay: Test Example 3: weedkilling efficacy through soil treatment; D: crabgrass; details: treatment dosage 315 g/ha
How it was run: (§3)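 Crop and weed responses were judged three weeks after a uniform surface spray of the water-diluted emulsion at the given g/ha rate. Seeds sat beneath about 1.5 cm of sterilized diluvial soil, and boxes stood in a greenhouse at 25 to 30° C.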

[9] = system: green foxtail; assay: Test Example 3: weedkilling efficacy through soil treatment; E: green foxtail; details: treatment dosage 315 g/ha
How it was run: as §3

[10] = system: barnyard grass; assay: Test Example 3: weedkilling efficacy through soil treatment; F: barnyard grass; details: treatment dosage 315 g/ha
How it was run: as §3

[11] = system: wild oat; assay: Test Example 3: weedkilling efficacy through soil treatment; G: wild oat; details: treatment dosage 315 g/ha
How it was run: as §3

[12] = system: black-grass; assay: Test Example 3: weedkilling efficacy through soil treatment; H: black-grass; details: treatment dosage 315 g/ha
How it was run: as §3

[13] = system: Italian ryegrass; assay: Test Example 3: weedkilling efficacy through soil treatment; I: Italian ryegrass; details: treatment dosage 315 g/ha
How it was run: as §3

[14] = system: common wind-grass; assay: Test Example 3: weedkilling efficacy through soil treatment; J: common wind-grass; details: treatment dosage 315 g/ha
How it was run: as §3

[15] = system: Indian mallow; assay: Test Example 3: weedkilling efficacy through soil treatment; K: Indian mallow; details: treatment dosage 315 g/ha
How it was run: as §3

[16] = system: redroot pigweed; assay: Test Example 3: weedkilling efficacy through soil treatment; L: redroot pigweed; details: treatment dosage 315 g/ha
How it was run: as §3

[17] = system: chickweed; assay: Test Example 3: weedkilling efficacy through soil treatment; N: chickweed; details: treatment dosage 315 g/ha
How it was run: as §3

[18] = system: catchweed; assay: Test Example 3: weedkilling efficacy through soil treatment; O: catchweed; details: treatment dosage 315 g/ha
How it was run: as §3

[19] = system: birds-eye speedwell; assay: Test Example 3: weedkilling efficacy through soil treatment; p: birds-eye speedwell; details: treatment dosage 315 g/ha
How it was run: as §3

[20] = system: directly sown rice; assay: Test Example 3: soil treatment, effect on crop; b: directly sown rice; details: treatment dosage 315 g/ha
How it was run: as §3

[21] = system: corn; assay: Test Example 3: soil treatment, effect on crop; c: corn; details: treatment dosage 315 g/ha
How it was run: as §3

[22] = system: soybean; assay: Test Example 3: soil treatment, effect on crop; d: soybean; details: treatment dosage 315 g/ha
How it was run: as §3

[23] = system: wheat; assay: Test Example 3: soil treatment, effect on crop; e: wheat; details: treatment dosage 315 g/ha
How it was run: as §3

[24] = system: beet; assay: Test Example 3: soil treatment, effect on crop; f: beet; details: treatment dosage 315 g/ha
How it was run: as §3

[25] = system: rapeseed; assay: Test Example 3: soil treatment, effect on crop; g: rapeseed; details: treatment dosage 315 g/ha
How it was run: as §3

[26] = system: crabgrass; assay: Test Example 4: weedkilling efficacy by foliar treatment; D: crabgrass; details: treatment dosage 315 g/ha
How it was run: (§4)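 Seeds are spot-sown into sterilized diluvial soil and covered with about 1.5 cm of soil. After 14 days' greenhouse growth at 25 to 30° C, plants are sprayed on stems and leaves with diluted emulsion at the stated g/ha rate, then scored at 3 weeks.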

[27] = system: green foxtail; assay: Test Example 4: weedkilling efficacy by foliar treatment; E: green foxtail; details: treatment dosage 315 g/ha
How it was run: as §4

[28] = system: barnyard grass; assay: Test Example 4: weedkilling efficacy by foliar treatment; F: barnyard grass; details: treatment dosage 315 g/ha
How it was run: as §4

[29] = system: wild oat; assay: Test Example 4: weedkilling efficacy by foliar treatment; G: wild oat; details: treatment dosage 315 g/ha
How it was run: as §4

[30] = system: black-grass; assay: Test Example 4: weedkilling efficacy by foliar treatment; H: black-grass; details: treatment dosage 315 g/ha
How it was run: as §4

[31] = system: Italian ryegrass; assay: Test Example 4: weedkilling efficacy by foliar treatment; I: Italian ryegrass; details: treatment dosage 315 g/ha
How it was run: as §4

[32] = system: common wind-grass; assay: Test Example 4: weedkilling efficacy by foliar treatment; J: common wind-grass; details: treatment dosage 315 g/ha
How it was run: as §4

[33] = system: Indian mallow; assay: Test Example 4: weedkilling efficacy by foliar treatment; K: Indian mallow; details: treatment dosage 315 g/ha
How it was run: as §4

[34] = system: redroot pigweed; assay: Test Example 4: weedkilling efficacy by foliar treatment; L: redroot pigweed; details: treatment dosage 315 g/ha
How it was run: as §4

[35] = system: chickweed; assay: Test Example 4: weedkilling efficacy by foliar treatment; N: chickweed; details: treatment dosage 315 g/ha
How it was run: as §4

[36] = system: catchweed; assay: Test Example 4: weedkilling efficacy by foliar treatment; O: catchweed; details: treatment dosage 315 g/ha
How it was run: as §4

[37] = system: birds-eye speedwell; assay: Test Example 4: weedkilling efficacy by foliar treatment; p: birds-eye speedwell; details: treatment dosage 315 g/ha
How it was run: as §4

[38] = system: directly sown rice; assay: Test Example 4: foliar treatment, effect on crop; b: directly sown rice; details: treatment dosage 315 g/ha
How it was run: as §4

[39] = system: corn; assay: Test Example 4: foliar treatment, effect on crop; c: corn; details: treatment dosage 315 g/ha
How it was run: as §4

[40] = system: soybean; assay: Test Example 4: foliar treatment, effect on crop; d: soybean; details: treatment dosage 315 g/ha
How it was run: as §4

[41] = system: wheat; assay: Test Example 4: foliar treatment, effect on crop; e: wheat; details: treatment dosage 315 g/ha
How it was run: as §4

[42] = system: beet; assay: Test Example 4: foliar treatment, effect on crop; f: beet; details: treatment dosage 315 g/ha
How it was run: as §4

[43] = system: rapeseed; assay: Test Example 4: foliar treatment, effect on crop; g: rapeseed; details: treatment dosage 315 g/ha
How it was run: as §4

CC1=C(c2ccccc2)C(=O)N(C(C)(C)C(=O)Nc2cc(F)cc(F)n2)CO1 [B-2-33]
A (barnyard grass) weedkilling efficacy grade [1]: 5 (weed kill ratio 90% or more, (practically complete withering)) | B (bulrush) weedkilling efficacy grade [2]: 5 (weed kill ratio 90% or more, (practically complete withering)) | C (oval-leafed pondweed) weedkilling efficacy grade [3]: 5 (weed kill ratio 90% or more, (practically complete withering)) | a (transplanted rice) effect on crop grade [4]: 3 (weed kill ratio 40% or more, less than 70%) | A (barnyard grass) weedkilling efficacy grade [5]: 5 (weed kill ratio 90% or more, (practically complete withering)) | B (bulrush) weedkilling efficacy grade [6]: 5 (weed kill ratio 90% or more, (practically complete withering)) | C (oval-leafed pondweed) weedkilling efficacy grade [7]: 5 (weed kill ratio 90% or more, (practically complete withering)) | D (crabgrass) weedkilling efficacy grade [8]: 5 (weed kill ratio 90% or more, (practically complete withering)) | E (green foxtail) weedkilling efficacy grade [9]: 5 (weed kill ratio 90% or more, (practically complete withering)) | F (barnyard grass) weedkilling efficacy grade [10]: 5 (weed kill ratio 90% or more, (practically complete withering)) | G (wild oat) weedkilling efficacy grade [11]: 5 (weed kill ratio 90% or more, (practically complete withering)) | H (black-grass) weedkilling efficacy grade [12]: 5 (weed kill ratio 90% or more, (practically complete withering)) | I (Italian ryegrass) weedkilling efficacy grade [13]: 5 (weed kill ratio 90% or more, (practically complete withering)) | J (common wind-grass) weedkilling efficacy grade [14]: 5 (weed kill ratio 90% or more, (practically complete withering)) | K (Indian mallow) weedkilling efficacy grade [15]: 5 (weed kill ratio 90% or more, (practically complete withering)) | L (redroot pigweed) weedkilling efficacy grade [16]: 4 (weed kill ratio 70% or more, less than 90%) | N (chickweed) weedkilling efficacy grade [17]: 4 (weed kill ratio 70% or more, less than 90%) | O (catchweed) weedkilling efficacy grade [18]: 5 (weed kill ratio 90% or more, (practically complete withering)) | P (birds-eye speedwell) weedkilling efficacy grade [19]: 5 (weed kill ratio 90% or more, (practically complete withering)) | b (directly sown rice) effect on crop grade [20]: 5 (weed kill ratio 90% or more, (practically complete withering)) | c (corn) effect on crop grade [21]: 3 (weed kill ratio 40% or more, less than 70%) | d (soybean) effect on crop grade [22]: 4 (weed kill ratio 70% or more, less than 90%) | e (wheat) effect on crop grade [23]: 5 (weed kill ratio 90% or more, (practically complete withering)) | f (beet) effect on crop grade [24]: 1 (weed kill ratio 5% or more, less than 20%) | g (rapeseed) effect on crop grade [25]: 5 (weed kill ratio 90% or more, (practically complete withering)) | D (crabgrass) weedkilling efficacy grade [26]: 5 (weed kill ratio 90% or more, (practically complete withering)) | E (green foxtail) weedkilling efficacy grade [27]: 5 (weed kill ratio 90% or more, (practically complete withering)) | F (barnyard grass) weedkilling efficacy grade [28]: 5 (weed kill ratio 90% or more, (practically complete withering)) | G (wild oat) weedkilling efficacy grade [29]: 5 (weed kill ratio 90% or more, (practically complete withering)) | H (black-grass) weedkilling efficacy grade [30]: 5 (weed kill ratio 90% or more, (practically complete withering)) | I (Italian ryegrass) weedkilling efficacy grade [31]: 5 (weed kill ratio 90% or more, (practically complete withering)) | J (common wind-grass) weedkilling efficacy grade [32]: 5 (weed kill ratio 90% or more, (practically complete withering)) | K (Indian mallow) weedkilling efficacy grade [33]: 4 (weed kill ratio 70% or more, less than 90%) | L (redroot pigweed) weedkilling efficacy grade [34]: 4 (weed kill ratio 70% or more, less than 90%) | N (chickweed) weedkilling efficacy grade [35]: 4 (weed kill ratio 70% or more, less than 90%) | O (catchweed) weedkilling efficacy grade [36]: 5 (weed kill ratio 90% or more, (practically complete withering)) | P (birds-eye speedwell) weedkilling efficacy grade [37]: 5 (weed kill ratio 90% or more, (practically complete withering)) | b (directly sown rice) effect on crop grade [38]: 5 (weed kill ratio 90% or more, (practically complete withering)) | c (corn) effect on crop grade [39]: 3 (weed kill ratio 40% or more, less than 70%) | d (soybean) effect on crop grade [40]: 4 (weed kill ratio 70% or more, less than 90%) | e (wheat) effect on crop grade [41]: 4 (weed kill ratio 70% or more, less than 90%) | f (beet) effect on crop grade [42]: 4 (weed kill ratio 70% or more, less than 90%) | g (rapeseed) effect on crop grade [43]: 4 (weed kill ratio 70% or more, less than 90%)

Source: patent US9738634B2, “Heterocyclic amide compound and herbicide” (SYNGENTA PARTICIPATIONS AG, priority 2013, dated 2017)
